Patent US9458102B2 (priority 2011, dated 2016)
Like-named read-outs stand apart in the source and are kept apart here.

Legend:
[1] = target: heteromeric rod CNG channels consisting of CNGA1 and CNGB1 subunits (Bos taurus, UniProt Q00194+Q28181); assay: biochemical; format: cell-based; conditions: 2 mM cGMP; for Kd: Table 1, mean±SD, not corrected for ion accumulation
Protocol: Currents were elicited by a voltage step protocol from 0 to −50 to +50 mV (See FIG. 1) in the presence of 2 mM cGMP or 2 mM cGMP and compound (5 μM). Time scale is shown in the lower left-hand corner of the panel and FIG. 1, and the zero current level is indicated by the dotted line.
The solid line indicates the fit of the equation for block at a single binding site.
Time scale is shown in the lower left-hand corner of the panel and FIG. 1, and the zero current level is indicated by the dotted line. […] Solid line indicates the fit of the equation for block at a single binding site.
The effectiveness of retinal rod CNG channel current block by the disclosed compounds was tested in Xenopus oocyte preparations. Excised, inside-out patches pulled from oocytes expressed heteromeric rod CNG channels consisting of CNGA1 and CNGB1 subunits. […] CNG channel currents were elicited by a voltage step protocol to −50 and +50 mV (FIG. 1). The apparent KD value at each membrane potential was estimated first by determining I+B and I−B at steady state, where I+B is the current in the presence of blocker and I−B is current in the absence of blocker, for different blocker concentrations ([B]).
Ovaries were surgically removed from adult Xenopus laevis females (Xenopus Express; Brooksville, Fla.) anesthetized with ice-cold 0.1% tricaine and 0.1% NaHCO3 solution. Oocytes were chemically released from ovarian follicles in Ca^2+-free Barth's solution (88 mM NaCl, 1 mM KCl, 2.4 mM NaHCO3, 0.82 mM MgSO4, 7.5 mM Tris, 2.5 mM sodium pyruvate, 100 U/mL penicillin, and 100 μg/mL streptomycin, pH 7.4) containing 0.1 U/mL Liberase Blendzymes (Roche, Indianapolis, Ind.). Stages IV and V oocytes were visually sorted and stored in ND-96 (96 mM NaCl, 2 mM KCl, 1.8 mM CaCl2, 1 mM MgCl2, 5 mM HEPES, 2.5 mM sodium pyruvate, 100 U/mL penicillin, and 100 μg/mL streptomycin, pH 7.4) at 16° C. Oocytes were co-injected the following day with 33 ng of CNGA1 and 67 ng of CNGB1 cRNA […] synthesized from linearized pGEM-HE expression vectors containing the channel subunit cDNA sequence (Strassmaier T & Karpen J, J Med Chem 50, 4186-4194, (2007), incorporated by reference herein) using T7 mMESSAGE mMACHINE® (Ambion, Austin, Tex.). Injected oocytes were incubated at 18° C. the first day and 16° C. for the remaining days.
Recordings from inside-out excised patches were made 3-7 days after oocyte injection on an Axopatch 1D® amplifier (Axon Instruments, Foster City, Calif.). Briefly, oocyte vitelline membranes were removed in solution containing 200 mM K aspartate, 20 mM KCl, 1 mM MgCl2, 10 mM EGTA, 10 mM HEPES, pH 7.4. Oocytes were placed in a recording chamber in a solution containing 130 mM NaCl, 2 mM HEPES, 0.02 mM EDTA, 1 mM EGTA, pH 7.6, and borosilicate glass electrodes (1-3 MΩ) were filled with identical solution. Macroscopic currents were filtered at 1 kHz and sampled at 2 kHz using pCLAMP 8.0® software (Axon Instruments). Channels were either fully activated with 2 mM or partially activated with 50 and 100 μM cGMP. […] Glass syringes and Teflon tubing were used to minimize the binding of compounds to surfaces; concentrations passing through the perfusion system were verified by absorbance.

[2] = target: T1, Butyrylcholinesterase purified from human blood serum (Homo sapiens, UniProt P06276); assay: In vitro hydrolysis by serum cholinesterase (butyrylcholinesterase); format: in vitro ADME; conditions: 50 μM compound, 0.1M phosphate buffer pH 7.4, 37° C.; mean±SD of triplicate
T1 construct: Butyrylcholinesterase purified from human blood serum; purchased Sigma; host or cells: purified from human blood serum
Protocol: Compound 1 is rapidly hydrolyzed by butyrylcholinesterase in the bloodstream. Butyrylcholinesterase purified from human blood serum was used to test the resistance of the disclosed compounds to hydrolysis.
(§1) All enzymatic assays were performed with 50 μM compound in 0.1M phosphate buffer, pH 7.4, at 37° C. with stirring, unless otherwise noted. Butyrylcholinesterase stock solutions from human serum (Sigma, St. Louis, Mo.) were prepared at 100 U/mL in 0.1 M phosphate buffer, pH 7.4, and stored at −20° C. until use. Hydrolysis was monitored on an 8452A diode array spectrophotometer (Hewlett-Packard). Product peak wavelength absorption was immediately monitored upon addition of compound. Absorbances for complete hydrolysis were determined when there were no further detectable changes. […] All hydrolysis assays were performed in triplicate, and final rate constants are expressed as the mean±SD of the three individually determined rate constants. In some experiments with compound 1, samples were taken at the beginning and end of the assay to verify the hydrolysis product and the completion of the reaction by HPLC. These samples were compared to compounds 1 and 3 on a C18 column eluted with 0.1% TFA in water/acetonitrile. Activity of chymotrypsin (bovine, Worthington Biochemical Co., 190 μg/mL) was verified with 90 μM 4-nitrophenyl acetate in 0.1 M HEPES solution, pH 6.5, at 37° C. with stirring. Hydrolysis product was monitored at 404 nm for 10 min. Activity of proteinase K (from Engyodontium album, Sigma, 165 μg/mL) was verified with 16.5 mg/mL bovine serum albumin in 0.1 M phosphate buffer, pH 7.4, at 37° C. Samples were taken at time point increments up to 2 hours when the reaction reached completion. Samples were analyzed with 12% SDS-PAGE, stained with 0.1% Coomassie Blue.

chymotrypsin = target: T2, chymotrypsin (Bos taurus, UniProt P00766); assay: In vitro hydrolysis by chymotrypsin; format: in vitro ADME
T2 construct: purchased Worthington Biochemical Co
Protocol: as §1, with “In some experiments with compound 1, samples were taken at the beginning and end of the assay to verify the hydrolysis product and the completion of the reaction by HPLC. These samples were compared to compounds 1 and 3 on a C18 column eluted with 0.1% TFA in water/acetonitrile.” left out

proteinase K = target: T3, proteinase K (Parengyodontium album, UniProt P06873); assay: In vitro hydrolysis by proteinase K; format: in vitro ADME, Engyodontium album
T3 construct: purchased Sigma
Protocol: Hydrolysis products of 4-nitrophenyl acetate and BSA were detected as positive controls.
as §1

Sequence of heteromeric rod CNG channels consisting of CNGA1 and CNGB1 subunits (Q00194 whole entry): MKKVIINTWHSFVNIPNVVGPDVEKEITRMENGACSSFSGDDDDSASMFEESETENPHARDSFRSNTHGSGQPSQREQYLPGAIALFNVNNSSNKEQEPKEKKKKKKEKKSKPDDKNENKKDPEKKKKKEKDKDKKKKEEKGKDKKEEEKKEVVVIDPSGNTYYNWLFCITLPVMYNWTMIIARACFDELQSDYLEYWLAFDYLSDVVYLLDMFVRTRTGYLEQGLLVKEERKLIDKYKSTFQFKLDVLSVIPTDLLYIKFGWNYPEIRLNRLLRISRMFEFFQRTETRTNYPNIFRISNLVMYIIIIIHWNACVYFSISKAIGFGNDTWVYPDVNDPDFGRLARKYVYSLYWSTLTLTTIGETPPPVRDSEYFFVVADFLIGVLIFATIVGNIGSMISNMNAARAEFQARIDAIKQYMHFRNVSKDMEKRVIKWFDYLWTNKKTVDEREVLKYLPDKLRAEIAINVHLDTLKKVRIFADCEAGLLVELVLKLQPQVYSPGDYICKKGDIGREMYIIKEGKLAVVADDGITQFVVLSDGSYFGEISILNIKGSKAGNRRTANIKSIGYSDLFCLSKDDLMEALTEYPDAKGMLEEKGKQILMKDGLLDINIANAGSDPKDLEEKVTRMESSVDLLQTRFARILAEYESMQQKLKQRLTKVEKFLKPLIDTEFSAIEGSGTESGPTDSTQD
Sequence of heteromeric rod CNG channels consisting of CNGA1 and CNGB1 subunits (Q28181 whole entry): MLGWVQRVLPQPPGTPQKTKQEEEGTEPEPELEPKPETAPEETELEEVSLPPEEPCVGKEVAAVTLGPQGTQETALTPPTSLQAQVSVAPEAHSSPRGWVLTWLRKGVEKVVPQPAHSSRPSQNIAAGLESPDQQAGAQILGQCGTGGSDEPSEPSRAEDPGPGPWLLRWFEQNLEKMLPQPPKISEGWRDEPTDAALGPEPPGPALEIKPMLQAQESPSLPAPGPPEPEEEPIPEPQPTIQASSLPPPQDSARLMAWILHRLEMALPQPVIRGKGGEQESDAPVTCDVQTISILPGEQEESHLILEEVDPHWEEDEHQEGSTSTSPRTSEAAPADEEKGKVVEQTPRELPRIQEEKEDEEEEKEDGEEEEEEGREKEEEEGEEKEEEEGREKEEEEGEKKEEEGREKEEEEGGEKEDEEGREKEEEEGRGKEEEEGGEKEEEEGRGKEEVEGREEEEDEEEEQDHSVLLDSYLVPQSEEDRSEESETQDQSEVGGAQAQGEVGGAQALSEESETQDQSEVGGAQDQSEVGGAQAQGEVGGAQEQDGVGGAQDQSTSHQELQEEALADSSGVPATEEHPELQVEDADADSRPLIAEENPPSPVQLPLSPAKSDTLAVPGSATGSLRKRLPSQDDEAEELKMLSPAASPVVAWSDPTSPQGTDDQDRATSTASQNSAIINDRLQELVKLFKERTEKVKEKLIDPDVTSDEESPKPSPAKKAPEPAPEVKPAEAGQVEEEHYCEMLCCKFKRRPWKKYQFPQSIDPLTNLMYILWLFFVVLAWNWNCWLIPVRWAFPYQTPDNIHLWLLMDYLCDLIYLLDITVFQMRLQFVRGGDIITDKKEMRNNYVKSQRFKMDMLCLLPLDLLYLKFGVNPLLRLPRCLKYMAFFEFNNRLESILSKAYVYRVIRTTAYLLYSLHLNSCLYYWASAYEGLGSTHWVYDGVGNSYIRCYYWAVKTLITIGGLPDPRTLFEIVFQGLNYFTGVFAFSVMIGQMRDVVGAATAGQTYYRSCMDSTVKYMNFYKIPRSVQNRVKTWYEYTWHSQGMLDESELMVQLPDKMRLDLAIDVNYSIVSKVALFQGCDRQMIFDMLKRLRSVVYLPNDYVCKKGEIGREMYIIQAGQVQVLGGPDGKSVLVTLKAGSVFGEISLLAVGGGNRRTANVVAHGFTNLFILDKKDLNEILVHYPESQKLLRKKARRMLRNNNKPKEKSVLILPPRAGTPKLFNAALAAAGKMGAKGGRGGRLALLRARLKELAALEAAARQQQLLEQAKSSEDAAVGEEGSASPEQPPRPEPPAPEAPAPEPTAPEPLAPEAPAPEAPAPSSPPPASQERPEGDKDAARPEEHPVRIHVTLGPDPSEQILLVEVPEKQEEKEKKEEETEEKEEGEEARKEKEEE
T1 sequence (P06276 29-602): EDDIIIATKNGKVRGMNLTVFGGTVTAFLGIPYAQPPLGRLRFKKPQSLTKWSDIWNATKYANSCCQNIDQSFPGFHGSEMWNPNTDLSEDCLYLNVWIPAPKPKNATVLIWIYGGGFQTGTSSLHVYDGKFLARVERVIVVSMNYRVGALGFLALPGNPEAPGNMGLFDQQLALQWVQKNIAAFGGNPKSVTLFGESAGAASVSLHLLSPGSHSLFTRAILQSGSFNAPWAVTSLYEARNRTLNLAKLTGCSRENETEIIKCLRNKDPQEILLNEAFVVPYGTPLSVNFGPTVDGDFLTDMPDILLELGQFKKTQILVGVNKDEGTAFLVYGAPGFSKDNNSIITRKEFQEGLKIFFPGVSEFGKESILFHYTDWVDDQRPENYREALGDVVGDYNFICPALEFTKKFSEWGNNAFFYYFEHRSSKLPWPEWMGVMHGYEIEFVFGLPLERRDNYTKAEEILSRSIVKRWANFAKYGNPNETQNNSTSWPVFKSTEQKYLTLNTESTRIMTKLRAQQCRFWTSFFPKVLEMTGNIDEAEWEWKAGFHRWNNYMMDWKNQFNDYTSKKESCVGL
T3 sequence (P06873 106-384): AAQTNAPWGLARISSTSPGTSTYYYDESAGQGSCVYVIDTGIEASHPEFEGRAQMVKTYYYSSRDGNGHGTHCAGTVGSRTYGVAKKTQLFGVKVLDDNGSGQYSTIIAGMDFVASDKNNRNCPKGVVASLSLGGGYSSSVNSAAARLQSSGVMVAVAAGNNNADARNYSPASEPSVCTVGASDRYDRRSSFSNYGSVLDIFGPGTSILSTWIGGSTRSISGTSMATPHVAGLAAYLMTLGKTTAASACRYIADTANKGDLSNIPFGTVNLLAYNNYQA

| Structure (SMILES) | Kd ([1]; +50 mV, read-out: KD(+50)) | Kd ([1]; −50 mV, read-out: KD(−50)) | Hydrolysis rate [2] | hydrolysis products with chymotrypsin (chymotrypsin) | hydrolysis products with proteinase K (proteinase K) | voltage dependence of block ([1]; +50 vs −50 mV) |
| --- | --- | --- | --- | --- | --- | --- |
| CCCCNc1ccc(C(=O)NCCN(C)C)cc1 [Compound 6, 4-(Butylamino)-N-(2-(dimethylamino)ethyl)benzamide] | 4.4 ± 2 µM | 28.6 ± 13.1 µM | 8.4 ± 3.5 nmol/min/mg | not able to generate any detectable hydrolysis products | not able to generate any detectable hydrolysis products |  |
| CCCCCCCCNc1ccc(C(=O)NCCN(C)C)cc1 [Compound 7, 4-(Octylamino)-N-(2-(dimethylamino)ethyl)benzamide] |  |  | 1.2 ± 0.5 nmol/min/mg | not able to generate any detectable hydrolysis products | not able to generate any detectable hydrolysis products | appreciably less voltage dependent than compound 1, 6, and 8 |
